# Where two headings read alike, the source gives them in different places.
# Columns and labels:
# Elastase = target: T1, Elastase (Sus scrofa, UniProt P00772); experiment: Elastase inhibition, fluorogenic substrate assay (MeOSuc-Ala-Ala-Pro-Val-AMC); assay type: biochemical, Sus domesticus; details: for IC50 / Mean (RFU/s): 40 min pre-incubation; for IC50: mean, n = 3; for Mean (RFU/s): Elastase
# T1 construct: purchased Sigma-Aldrich
# Chymotrypsin = target: T2, Chymotrypsin (Bos taurus, UniProt P00766); experiment: Chymotrypsin inhibition, fluorogenic substrate assay (Suc-Ala-Ala-Pro-Phe-AMC); assay type: biochemical; details: for Mean (RFU/s): Chymotrypsin; for fold increase in potency towards chymotrypsin: molassamide B (6) compared to molassamide (5)
# T2 construct: purchased Sigma-Aldrich
# Proteinase K = target: T3, Proteinase K (Parengyodontium album, UniProt P06873); experiment: Proteinase K inhibition, fluorogenic substrate assay (Suc-Ala-Ala-Pro-Phe-AMC); assay type: biochemical, Tritirachium album; details: for IC50 / Mean (RFU/s): 40 min pre-incubation; for IC50: mean, n = 3; for Mean (RFU/s): Proteinase K
# T3 construct: purchased Roche
# T3 sequence (P06873 106-384): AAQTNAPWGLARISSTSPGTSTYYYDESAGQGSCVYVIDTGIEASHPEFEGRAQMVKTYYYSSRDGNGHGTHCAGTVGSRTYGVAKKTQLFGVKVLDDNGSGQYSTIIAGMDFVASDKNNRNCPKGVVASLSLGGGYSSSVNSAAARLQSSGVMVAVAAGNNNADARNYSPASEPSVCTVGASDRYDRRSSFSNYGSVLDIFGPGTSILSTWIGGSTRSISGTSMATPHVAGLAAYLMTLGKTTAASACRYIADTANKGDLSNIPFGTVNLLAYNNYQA
# [1] = inhibitor concentration 0.0508053 nM
# [2] = inhibitor concentration 0.152416 nM
# [3] = inhibitor concentration 0.457247 nM
# [4] = inhibitor concentration 1.37174 nM
# [5] = inhibitor concentration 4.11523 nM
# [6] = inhibitor concentration 12.3457 nM
# [7] = inhibitor concentration 37.037 nM
# [8] = inhibitor concentration 111.111 nM
# [9] = inhibitor concentration 333.333 nM
# [10] = inhibitor concentration 1000 nM
# [11] = inhibitor concentration 3000 nM
# [12] = molassamide B (6) compared to molassamide (5)
# [13] = 40 min pre-incubation, mean, n = 3, read-out: IC50 Chymotrypsin
# [14] = inhibitor concentration 0.0508053 nM, 40 min pre-incubation
# [15] = inhibitor concentration 0.152416 nM, 40 min pre-incubation
# [16] = inhibitor concentration 0.457247 nM, 40 min pre-incubation
# [17] = inhibitor concentration 1.37174 nM, 40 min pre-incubation
# [18] = inhibitor concentration 4.11523 nM, 40 min pre-incubation
# [19] = inhibitor concentration 12.3457 nM, 40 min pre-incubation
# [20] = inhibitor concentration 37.037 nM, 40 min pre-incubation
# [21] = inhibitor concentration 111.111 nM, 40 min pre-incubation
# [22] = inhibitor concentration 333.333 nM, 40 min pre-incubation
# [23] = inhibitor concentration 1000 nM, 40 min pre-incubation
# [24] = inhibitor concentration 3000 nM, 40 min pre-incubation
# [25] = Supplementary Table 5, compounds of this study, read-out: Chymotrypsin IC50
# T1 sequence (P00772 27-266): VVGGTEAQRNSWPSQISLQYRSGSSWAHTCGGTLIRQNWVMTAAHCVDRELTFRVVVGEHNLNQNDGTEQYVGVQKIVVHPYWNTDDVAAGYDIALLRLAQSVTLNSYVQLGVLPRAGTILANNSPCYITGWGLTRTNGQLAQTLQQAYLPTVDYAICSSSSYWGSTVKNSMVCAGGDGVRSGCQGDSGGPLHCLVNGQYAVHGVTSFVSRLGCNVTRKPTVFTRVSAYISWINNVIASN
structure (smiles),measurement,setting,value
"C/C=C1\NC(=O)[C@@H](NC(=O)[C@@H](NC(=O)[C@H](C)NC(=O)CCC)[C@@H](C)O)[C@@H](C)OC(=O)[C@H](C(C)C)NC(=O)[C@H](Cc2ccc(O)c(Br)c2)N(C)C(=O)[C@H](Cc2ccccc2)N2C(=O)[C@H](CC[C@H]2O)NC1=O [Molassamide B, molassamide B]",IC50,Elastase,0.0117 µM
same,Mean (RFU/s),Elastase; [1],0.846 RFU/s
same,Mean (RFU/s),Elastase; [2],0.8437 RFU/s
same,Mean (RFU/s),Elastase; [3],0.8327 RFU/s
same,Mean (RFU/s),Elastase; [4],0.7837 RFU/s
same,Mean (RFU/s),Elastase; [5],0.677 RFU/s
same,Mean (RFU/s),Elastase; [6],0.418 RFU/s
same,Mean (RFU/s),Elastase; [7],0.1113 RFU/s
same,Mean (RFU/s),Elastase; [8],0.024 RFU/s
same,Mean (RFU/s),Elastase; [9],0 RFU/s
same,Mean (RFU/s),Elastase; [10],0 RFU/s
same,Mean (RFU/s),Elastase; [11],0 RFU/s
same,fold increase in potency towards elastase,Elastase; [12],three
same,IC50,Chymotrypsin; [13],0.0246 µM
same,Mean (RFU/s),Chymotrypsin; [14],5.208 RFU/s
same,Mean (RFU/s),Chymotrypsin; [15],5.061 RFU/s
same,Mean (RFU/s),Chymotrypsin; [16],5.116 RFU/s
same,Mean (RFU/s),Chymotrypsin; [17],5.104 RFU/s
same,Mean (RFU/s),Chymotrypsin; [18],4.681 RFU/s
same,Mean (RFU/s),Chymotrypsin; [19],3.888 RFU/s
same,Mean (RFU/s),Chymotrypsin; [20],1.754 RFU/s
same,Mean (RFU/s),Chymotrypsin; [21],0.844 RFU/s
same,Mean (RFU/s),Chymotrypsin; [22],0.3123 RFU/s
same,Mean (RFU/s),Chymotrypsin; [23],0.1157 RFU/s
same,Mean (RFU/s),Chymotrypsin; [24],0 RFU/s
same,IC50,Chymotrypsin; [25],0.0247 µM
same,fold increase in potency towards chymotrypsin,Chymotrypsin,thirtyfive
same,fold increase in potency towards chymotrypsin,Chymotrypsin; listed as 6,35 fold
same,IC50,Proteinase K,0.00542 µM
same,Mean (RFU/s),Proteinase K; [1],6.3 RFU/s
same,Mean (RFU/s),Proteinase K; [2],6.284 RFU/s
same,Mean (RFU/s),Proteinase K; [3],6.22 RFU/s
same,Mean (RFU/s),Proteinase K; [4],5.564 RFU/s
same,Mean (RFU/s),Proteinase K; [5],3.825 RFU/s
same,Mean (RFU/s),Proteinase K; [6],1.43 RFU/s
same,Mean (RFU/s),Proteinase K; [7],0.3433 RFU/s
same,Mean (RFU/s),Proteinase K; [8],0.1 RFU/s
same,Mean (RFU/s),Proteinase K; [9],0.03367 RFU/s
same,Mean (RFU/s),Proteinase K; [10],0 RFU/s
same,Mean (RFU/s),Proteinase K; [11],0 RFU/s
same,fold increase in potency towards proteinase K,Proteinase K; [12],four
"CC=C1NC(=O)[C@@H](NC(=O)[C@@H](NC(=O)[C@@H]2CCCN2C(=O)CCC)[C@@H](C)O)[C@@H](C)OC(=O)[C@H](C(C)C)NC(=O)[C@H](Cc2ccc(O)cc2)N(C)C(=O)[C@H](Cc2ccccc2)N2C(=O)[C@H](CC[C@H]2O)NC1=O [Rivulariapeptolide 988, rivulariapeptolide 988]",IC50,Elastase,0.0153 µM
same,Mean (RFU/s),Elastase; [1],0.804 RFU/s
same,Mean (RFU/s),Elastase; [2],0.8127 RFU/s
same,Mean (RFU/s),Elastase; [3],0.808 RFU/s
same,Mean (RFU/s),Elastase; [4],0.7693 RFU/s
same,Mean (RFU/s),Elastase; [5],0.661 RFU/s
same,Mean (RFU/s),Elastase; [6],0.463 RFU/s
same,Mean (RFU/s),Elastase; [7],0.2057 RFU/s
same,Mean (RFU/s),Elastase; [8],0.065 RFU/s
same,Mean (RFU/s),Elastase; [9],0.018 RFU/s
same,Mean (RFU/s),Elastase; [10],0 RFU/s
same,Mean (RFU/s),Elastase; [11],0 RFU/s
same,IC50,Chymotrypsin; [13],0.0955 µM
same,Mean (RFU/s),Chymotrypsin; [14],4.956 RFU/s
same,Mean (RFU/s),Chymotrypsin; [15],4.945 RFU/s
same,Mean (RFU/s),Chymotrypsin; [16],5.008 RFU/s
same,Mean (RFU/s),Chymotrypsin; [17],5.099 RFU/s
same,Mean (RFU/s),Chymotrypsin; [18],4.694 RFU/s
same,Mean (RFU/s),Chymotrypsin; [19],4.587 RFU/s
same,Mean (RFU/s),Chymotrypsin; [20],3.41 RFU/s
same,Mean (RFU/s),Chymotrypsin; [21],2.381 RFU/s
same,Mean (RFU/s),Chymotrypsin; [22],1.135 RFU/s
same,Mean (RFU/s),Chymotrypsin; [23],0.4203 RFU/s
same,Mean (RFU/s),Chymotrypsin; [24],0.1363 RFU/s
same,IC50,Chymotrypsin; [25],0.0955 µM
same,IC50,Proteinase K,0.0855 µM
same,Mean (RFU/s),Proteinase K; [1],6.083 RFU/s
same,Mean (RFU/s),Proteinase K; [2],6.104 RFU/s
same,Mean (RFU/s),Proteinase K; [3],6.172 RFU/s
same,Mean (RFU/s),Proteinase K; [4],5.959 RFU/s
same,Mean (RFU/s),Proteinase K; [5],5.86 RFU/s
same,Mean (RFU/s),Proteinase K; [6],5.64 RFU/s
same,Mean (RFU/s),Proteinase K; [7],4.799 RFU/s
same,Mean (RFU/s),Proteinase K; [8],2.395 RFU/s
same,Mean (RFU/s),Proteinase K; [9],0.4403 RFU/s
same,Mean (RFU/s),Proteinase K; [10],0.07367 RFU/s
same,Mean (RFU/s),Proteinase K; [11],0.022 RFU/s
"CC=C1NC(=O)[C@@H](NC(=O)[C@@H](NC(=O)[C@@H]2CCCN2C(=O)CCC)[C@@H](C)OC(=O)C2CCCN2C(=O)CCC)[C@@H](C)OC(=O)[C@H](C(C)C)NC(=O)[C@H](Cc2ccc(O)cc2)N(C)C(=O)[C@H](CC(C)C)N2C(=O)[C@H](CC[C@H]2O)NC1=O (some centres unmarked) [Rivulariapeptolide 1121, rivulariapeptolide 1121]",IC50,Elastase,0.0132 µM
same,Mean (RFU/s),Elastase; [1],0.8433 RFU/s
same,Mean (RFU/s),Elastase; [2],0.7923 RFU/s
same,Mean (RFU/s),Elastase; [3],0.7877 RFU/s
same,Mean (RFU/s),Elastase; [4],0.7943 RFU/s
same,Mean (RFU/s),Elastase; [5],0.7343 RFU/s
same,Mean (RFU/s),Elastase; [6],0.4323 RFU/s
same,Mean (RFU/s),Elastase; [7],0.094 RFU/s
same,Mean (RFU/s),Elastase; [8],0.02167 RFU/s
same,Mean (RFU/s),Elastase; [9],0 RFU/s
same,Mean (RFU/s),Elastase; [10],0 RFU/s
same,Mean (RFU/s),Elastase; [11],0 RFU/s
same,IC50,Chymotrypsin; [13],0.0355 µM
same,Mean (RFU/s),Chymotrypsin; [14],4.522 RFU/s
same,Mean (RFU/s),Chymotrypsin; [15],4.745 RFU/s
same,Mean (RFU/s),Chymotrypsin; [16],4.969 RFU/s
same,Mean (RFU/s),Chymotrypsin; [17],4.65 RFU/s
same,Mean (RFU/s),Chymotrypsin; [18],4.6 RFU/s
same,Mean (RFU/s),Chymotrypsin; [19],4.156 RFU/s
same,Mean (RFU/s),Chymotrypsin; [20],1.852 RFU/s
same,Mean (RFU/s),Chymotrypsin; [21],1.527 RFU/s
same,Mean (RFU/s),Chymotrypsin; [22],0.623 RFU/s
same,Mean (RFU/s),Chymotrypsin; [23],0.1967 RFU/s
same,Mean (RFU/s),Chymotrypsin; [24],0 RFU/s
same,IC50,Chymotrypsin; [25],0.0355 µM
same,IC50,Proteinase K,0.048 µM
same,Mean (RFU/s),Proteinase K; [1],6.561 RFU/s
same,Mean (RFU/s),Proteinase K; [2],6.281 RFU/s
same,Mean (RFU/s),Proteinase K; [3],6.268 RFU/s
same,Mean (RFU/s),Proteinase K; [4],6.292 RFU/s
same,Mean (RFU/s),Proteinase K; [5],6.214 RFU/s
same,Mean (RFU/s),Proteinase K; [6],5.471 RFU/s
same,Mean (RFU/s),Proteinase K; [7],4.069 RFU/s
same,Mean (RFU/s),Proteinase K; [8],0.93 RFU/s
same,Mean (RFU/s),Proteinase K; [9],0.1023 RFU/s
same,Mean (RFU/s),Proteinase K; [10],0 RFU/s
same,Mean (RFU/s),Proteinase K; [11],0 RFU/s
"CC=C1NC(=O)[C@@H](NC(=O)[C@@H](NC(=O)[C@@H]2CCCN2C(=O)CCC)[C@@H](C)OC(=O)C2CCCN2C(=O)CCC)[C@@H](C)OC(=O)[C@H](C(C)C)NC(=O)[C@H](Cc2ccc(O)cc2)N(C)C(=O)[C@H](Cc2ccccc2)N2C(=O)[C@H](CC[C@H]2O)NC1=O (some centres unmarked) [Rivulariapeptolide 1155, rivulariapeptolide 1155]",IC50,Elastase,0.00494 µM
same,Mean (RFU/s),Elastase; [1],0.9773 RFU/s
same,Mean (RFU/s),Elastase; [2],0.8963 RFU/s
same,Mean (RFU/s),Elastase; [3],0.839 RFU/s
same,Mean (RFU/s),Elastase; [4],0.7733 RFU/s
same,Mean (RFU/s),Elastase; [5],0.5503 RFU/s
same,Mean (RFU/s),Elastase; [6],0.1703 RFU/s
same,Mean (RFU/s),Elastase; [7],0.054 RFU/s
same,Mean (RFU/s),Elastase; [8],0 RFU/s
same,Mean (RFU/s),Elastase; [9],0 RFU/s
same,Mean (RFU/s),Elastase; [10],0 RFU/s
same,Mean (RFU/s),Elastase; [11],0 RFU/s
same,IC50,Chymotrypsin; [13],0.0418 µM
same,Mean (RFU/s),Chymotrypsin; [14],5.293 RFU/s
same,Mean (RFU/s),Chymotrypsin; [15],5.198 RFU/s
same,Mean (RFU/s),Chymotrypsin; [16],5.411 RFU/s
same,Mean (RFU/s),Chymotrypsin; [17],5.774 RFU/s
same,Mean (RFU/s),Chymotrypsin; [18],4.968 RFU/s
same,Mean (RFU/s),Chymotrypsin; [19],4.399 RFU/s
same,Mean (RFU/s),Chymotrypsin; [20],2.874 RFU/s
same,Mean (RFU/s),Chymotrypsin; [21],1.339 RFU/s
same,Mean (RFU/s),Chymotrypsin; [22],0.494 RFU/s
same,Mean (RFU/s),Chymotrypsin; [23],0.1737 RFU/s
same,Mean (RFU/s),Chymotrypsin; [24],0 RFU/s
same,IC50,Chymotrypsin; [25],0.0418 µM
same,IC50,Proteinase K,0.0565 µM
same,Mean (RFU/s),Proteinase K; [1],6.603 RFU/s
same,Mean (RFU/s),Proteinase K; [2],6.245 RFU/s
same,Mean (RFU/s),Proteinase K; [3],6.403 RFU/s
same,Mean (RFU/s),Proteinase K; [4],6.159 RFU/s
same,Mean (RFU/s),Proteinase K; [5],6.088 RFU/s
same,Mean (RFU/s),Proteinase K; [6],5.497 RFU/s
same,Mean (RFU/s),Proteinase K; [7],4.358 RFU/s
same,Mean (RFU/s),Proteinase K; [8],1.504 RFU/s
same,Mean (RFU/s),Proteinase K; [9],0.363 RFU/s
same,Mean (RFU/s),Proteinase K; [10],0.09033 RFU/s
same,Mean (RFU/s),Proteinase K; [11],0.027 RFU/s

# — article PMC9358669, “Native metabolomics identifies the rivulariapeptolide family of protease inhibitors” (Nature Communications, 2022)
